From article PMC11750672, “The in vivo metabolic pathway of Deg-AZM and in vitro investigations into the contribution of drug metabolizing enzymes and drug transporters in the drug interactions of Deg-AZM, a clinical-stage new transgelin agonist” (Frontiers in Pharmacology, 2025)

What was measured:
[1] = Excretion and material balance in rats (urine, feces 0-24 h); assay type: in vivo; conditions: through the kidneys and urine
Procedure: (§1) The plasma samples at 0.167 h, 0.5 h, 3 h and 8 h after administration were obtained from the study of tissue distribution in rats ([Gu et al., 2024]). Urine, feces and bile samples at 0–24 h after administration were obtained from the excretion study of a single gavage administration of 25 mg/kg Deg-AZM in rats ([Gu et al., 2024]).
The types and proportions of metabolites in the excretion pathway were elucidated in this study. […] Based on the peak area in this study, the total amount of metabolites in urine and feces of rats was 0.589 times and 9.96 times that of the original form of Deg-AZM, respectively. The total amount of Deg-AZM excreted in its original form and various metabolites in urine and feces was 23.7% and 19.8% of the administered dose, respectively, with a material balance coefficient of 43.5%. Deg-AZM was mainly excreted in the form of its original form M0 (cumulative excretion fraction of 14.9%) and metabolite M2 (cumulative excretion fraction of 5.33%) through the kidneys and urine, and in the form of metabolite M1-2 (cumulative excretion fraction of 4.29%) and M2 (cumulative excretion fraction of 3.93%) through the intestines and feces. […] It is necessary to obtain standard samples of the main metabolites for accurate quantification or use isotope tracing techniques to further improve material balance research in the clinical stage.

[2] = Exposure profiles of Deg-AZM and metabolites in rat plasma, urine, feces and bile (UPLC-QTOF-MS); assay type: in vivo, rats; conditions: / = not detected; for Proportion in total related substances, Feces: rat feces 0-24 h; for Proportion in total related substances, Plasma: rat plasma 0.167-8 h after oral Deg-AZM, by AUC0-t of chromatographic peak area; for Proportion in total related substances, Urine: rat urine 0-24 h
Procedure: as §1
Plasma samples were precipitated with methanol at a ratio of 1:3. Urine samples were diluted with 50% methanol at a ratio of 1:80. The feces was thoroughly ground and sonicated with a 50% methanol at a ratio of 1 g/10 mL to obtain the homogenate, then the homogenate were precipitated with methanol at a ratio of 1:1. Bile samples were precipitated with 50% methanol at a ratio of 1:1. The above obtained samples were vortexed for 1 min and centrifugated at 4°C, 12,000 rpm for 10 min. Finally, the upper layer was analyzed using the UPLC-QTOF-MS system.
The metabolites of Deg-AZM in the plasma, urine, feces and bile samples were identified by UPLC-QTOF-MS system. Liquid chromatography was performed on an ACQUITY UPLC^TM I-Class UPLC unit with a Waters ACQUITY UPLC HSS T3 (100 × 2.1 mm, 1.8 µm). A gradient program was employed with the mobile phase combining solvent A (0.02% formic acid in 5% acetonitrile) and solvent B (acetonitrile) as follows: 100% A (0–0.5 min), 100%–85% A (0.5–7 min), 85%–5% A (7–9 min), 5% A (9–12 min), 5%–100% A (12–15 min). The flow rate was 0.40 mL/min. The column temperature was maintained at 40°C.
A Waters Q-TOF Xevo G2-XS Spectrometer equipped with ESI source under positive ion mode was utilized to conduct mass spectrometry detection, for which the MS^E mode was set at the mass range of 100–1,000 Da. The cone voltage was 40 V. The desolvation temperature was set at 500°C and source temperature was 100°C. The desolvation gas flow rate was 800 L/h and the cone gas flow rate was 50 L/h. In MS^E centroid mode, the MS data were acquired with the low energy function in the trap collision energy (6 eV), and the tandem mass data were acquired with the high energy function in the ramp trap collision energy (35–45 eV).
The extraction ion chromatogram of plasma samples at 0.167 h, 0.5 h, 3 h and 8 h after administration of Deg-AZM in rats was shown in Figure 2. The extraction ion chromatogram of urine, feces and bile samples collected from 0 to 24 h after oral administration of Deg-AZM in rats was shown in Figure 3. The AUC0-t of Deg-AZM and its metabolites in plasma sample were calculated by trapezoidal rule based on the chromatographic peak area. 21 metabolites were found in rat plasma, with M0 (Deg-AZM) and metabolite M2 (demethylated) being the main exposure forms in rat plasma. M0 and M2 accounted for 61.6% and 23.0% of the total related substances in rat plasma, respectively. The relative proportions of Deg-AZM and its metabolites in urine, feces and bile samples were evaluated by the chromatographic peak area, as shown in Figure 4. The detailed proportion of Deg-AZM and its metabolites could be found in Supplementary Table S1. M0 and 28 metabolites were found in the urine of rats. […] M0 and 42 metabolites were found in the feces of rats. Metabolite M1-2 (monohydroxylation, 18.1%) and metabolite M2 (16.6%) were the main forms of fecal excretion of Deg-AZM in rats after oral administration. M0 and 38 metabolites were found in the bile samples of rats. Metabolite M1-2 (monohydroxylation, 19.2%) and metabolite M2 (16.5%) were the main forms of biliary excretion of Deg-AZM in rats after oral administration.

CYP1A2 = assay: CYP induction (mRNA, qPCR) in human hepatocytes; assay type: in vitro ADME; conditions: positive control 50 μM
From the text: (§2) After culture and complete induction, total mRNA was extracted by TRNzol RNA Extraction Kit (purchased from Tiangen Biochemical Technology Co., Ltd., Beijing). The RNA was reverse transcribed into cDNA according to the instructions of the Transcriptor First Strand cDNA Synthesis Kit (purchased from Roche, Switzerland). Using reverse transcribed cDNA as a template, amplifying the internal reference genes of β-Actin of the sample and target genes of CYP1A2, CYP2B6, and CYP3A4 respectively to compare the expression differences.

CYP2B6 = assay: CYP induction (mRNA, qPCR) in human hepatocytes; conditions: positive control 1 mM
From the text: as §2

P-gp = tested on: T1, P-gp; assay: Bidirectional transport in Caco-2 cell monolayer with P-gp inhibitor quinidine; assay type: in vitro ADME, human; conditions: human, Caco-2, with quinidine 50 μM; efflux positive control, (+) quinidine; n = 3
T1 construct: evaluated using Caco-2 cell monolayer both apical-to-basolateral (A-B) and basolateral-to-apical (B-A) directions; endogenous in cells; host or cells: Caco-2
Procedure: (§3) The human colon adenocarcinoma Caco-2 cell line was provided by Institute of Basic Medicine, Chinese Academy of Medical Sciences (Beijing, China). Caco-2 cells were cultured in a high sugar DMEM medium containing 10% (v/v) fetal bovine serum at 37°C and 5% CO2 incubator. Caco-2 cells (2.5 ×10^5/mL) was inoculated into Transwell polycarbonate membrane 12 well plate. The culture medium was changed every 2 days for the first 14 days, and then every day. After 21 consecutive days, fully differentiated cell monolayers were obtained for drug transport assays.
(§4) Transepithelial electrical resistance (TEER) was used to indicate monolayer integrity. The electrode of the Millcell ERS-2 voltammeter was placed in HBSS solution for 20 min to pre-balance. At the same time, the culture medium was removed from the Transwell culture plate, 0.5 mL of pre-heated HBSS solution was added into the Apical (AP) of transwell, 1.5 mL of pre-heated HBSS solution was added into the Basolateral (BL) of transwell. After that, the transwell was balanced at 37°C for 20 min and then replaced the HBSS solution with the pre-heated HBSS solution, the TEER value was measured finally. Caco-2 cell monolayers with TEER >350 Ω cm^2 which means that the cells have formed a tight monolayer, were used for the experiment. The TEER value was calculated according to the following formula: TEER=TEERT ‐ TEERc×A where TEERT represented the TEER value (Ω) of the measured Transwell chamber with Caco-2 cells, TEERC was the TEER value (Ω) of the transwell chamber in the control group, and A was the membrane area of the transwell cavity (1.12 cm^2 in this experiment).
(§5) In order to evaluate the usability of the Transwell model research, [^3H] Propranolol (0.5 μCi/mL) and [^14C] PEG4000 (1 μCi/mL) served as high-permeability and impermeability controls to verify the uptake direction on Caco-2 cell monolayer, respectively. Rhodamine 123 was used as a positive control for efflux mechanism in bidirectional transport assay on Caco-2 cell monolayer.
(§6) The transmembrane permeability of Deg-AZM (2, 10 or 50 µM) and the potential to inhibit P-gp by Deg-AZM (2, 10 or 50 µM) were evaluated using Caco-2 cell monolayer both apical-to-basolateral (A-B) and basolateral-to-apical (B-A) directions at 37°C for 1 h, the experiments were conducted using quinidine (50 μM) as the inhibitor for P-gp. At the end of incubation, receiver and donor samples were both diluted by assay buffer and analyzed by LC-MS/MS.

[3] = Bidirectional transport in Caco-2 cell monolayer; assay type: in vitro ADME, human; conditions: human, Caco-2, efflux positive control, (−) without quinidine
Procedure: as §3, §4, §5, §6

Caco-2 cell monolayer = assay: Bidirectional transport in Caco-2 cell monolayer; assay type: in vitro ADME, human; conditions: 0.5 μCi/mL, high-permeability control; n = 3
Procedure: as §3, §4, §5, §6

[4] = single gavage 25 mg/kg Deg-AZM, by peak area
[5] = single gavage 25 mg/kg Deg-AZM, by peak area, 25 mg/kg

SMILES: CCC1OC(=O)C(C)C(O)C(C)C(O)C(C)(O)CC(C)CNC(C)C(O)C1(C)O (centres unmarked) [M2]
- Cumulative excretion fraction, urine [1]: 5.33%
- Proportion in total related substances, Bile ([2]; rat bile 0-24 h, single gavage 25 mg/kg Deg-AZM, by peak area): 16.5%
- Proportion in total related substances, Feces [2, 4]: 16.6%
- Proportion in total related substances, Plasma [2]: 23.0%
- Proportion in total related substances, Urine [2, 4]: 22.5%

SMILES: CCC(O)C(C)(O)C(O)C(C)N(C)CC(C)CC(C)(O)C(O)C(C)C(O)C(C)C(=O)O (centres unmarked) [M11]
- Proportion in total related substances, Feces [2, 5]: 1.24%
- Proportion in total related substances, Plasma [2]: 2.04%
- Proportion in total related substances, Urine [2, 5]: 0.224%

SMILES: COc1ccc2[nH]c([S+]([O-])Cc3ncc(C)c(OC)c3C)nc2c1 (centres unmarked) [Omeprazole, reference compound]
- CYP1A2 mRNA induction, times of control group (CYP1A2; hepatocyte batch HUB): 48.2
- CYP1A2 mRNA induction, times of control group (CYP1A2; hepatocyte batch LHuf 17905B): 56.0
- CYP1A2 mRNA induction, times of control group (CYP1A2; hepatocyte batch MWB): 64.6

SMILES: CCC1(c2ccccc2)C(=O)NC(=O)NC1=O [Phenobarbital, reference compound]
- CYP2B6 mRNA induction, times of control group (CYP2B6; hepatocyte batch HUB): 13.5
- CYP2B6 mRNA induction, times of control group (CYP2B6; hepatocyte batch LHuf 17905B): 10.3
- CYP2B6 mRNA induction, times of control group (CYP2B6; hepatocyte batch MWB): 14.7

SMILES: COC(=O)c1ccccc1-c1c2ccc(=N)cc-2oc2cc(N)ccc12 [Rhodamine 123, reference compound]
- Papp A→B (P-gp): 0.00478 ± 0.000709 ×10⁻⁶ cm/s
- Papp B→A (P-gp): 0.0417 ± 0.0152 ×10⁻⁶ cm/s
- Papp A→B ([3]; n = 3): 0.0031 ± 0.00141 ×10⁻⁶ cm/s
- Papp B→A ([3]; n = 3): 0.166 ± 0.0287 ×10⁻⁶ cm/s
- efflux ratio ([3]; read-out: ER): 53.5

SMILES: CC(C)NCC(O)COc1cccc2ccccc12 (centres unmarked) [[^3H] Propranolol, reference compound]
- P app AP→BL (Caco-2 cell monolayer): 9.64 ± 1.05 ×10^–6 cm/s
